Row | SMILES | logP
1 | O=C(O)/C=C/c1ccc2c(c1)OCO2 | 2.59
2 | CCN(CC)CCOC(=O)/C=C/c1ccccc1 | 3.61
3 | CCN(CC)CCOC(=O)C=Cc1ccc(OC)c(OC)c1 | 2.88
4 | O=C(C=Cc1ccccc1)OCC=Cc1ccccc1 | 4.45
5 | CCOC(=O)/C=C/c1ccc(O)c(O)c1 | 2.56
6 | CCN(CC)CCOC(=O)/C=C/c1cc(OC)c(OC)c(OC)c1 | 2.84
7 | CCN(CC)CCOC(=O)/C=C/c1ccc(F)cc1 | 3.52

Further lines, results first:

Row | logP | SMILES
8 | 2.68 | COc1ccc(/C=C/C(=O)O)cc1
9 | 2.22 | COC(=O)/C=C/c1ccc(O)c(O)c1
10 | 2.34 | COc1ccc(C=CC(=O)O)cc1OC
11 | 3.15 | O=C(O)C=CC=Cc1ccccc1
12 | 1.87 | COc1cc(C=CC(=O)O)ccc1O
13 | 1.79 | O=C(O)/C=C/c1ccc(O)cc1

— the SangsterLogP compilation
